According to patent publication US20080166310A1, “Administration of 2-oxyacetamide compounds for promoting and/or inducing and/or stimulating the pigmentation of keratin materials and/or for limiting the depigmentation and/or bleaching thereof” (L'OREAL, priority 2005, published 2008):

System: tyrosinase activity of normal human melanocytes
Experiment: Effect on the tyrosinase activity of normal human melanocytes in culture (L-Dopa substrate, absorbance 450 nm)
Assay type: cell-based
Conditions: 72 hours, normal human epidermal melanocytes
Method: Melanocyte Culture Conditions:
Normal human epidermal melanocytes are cultured (9th passage) in “melanocytes growth medium M2” supplemented with Promocell C24300 supplements 50 IU/ml of penicillin and 50 μg/ml of streptomycin (Invitrogen) under standard temperature conditions (37° C.) and 5% CO2.
Preparation of the Solutions of the Test Compound:
The compound is dissolved in absolute ethanol (PGE2) or in DMSO (15-PGDH inhibitors). The final titer of the prepared solutions is 10 mM. The final test concentrations range from 0.1 to 10 μM (PGE2) and 1 to 10 μM (15-PGDH inhibitors).
The tests performed consist in measuring the inhibitory effect on 15-PGDH alone or combined with PGE2* on the overall activity of tyrosinase.
PGE2 is a pigmentation modulator that is deactivated by the enzyme 15-PGDH.
The melanocytes are cultured in 96-well plates, to the point of confluence (culture conditions described in a), and the supernatant of each of the wells is then removed and replaced with medium containing the compounds to be evaluated, i.e., (in triplicate) the 15-PGDH inhibitor alone at 1 μM and 10 μM or for each of these first conditions in the presence of 0.1 μM, 1 μM or 10 μM of PGE2.
The cultures are maintained under these various conditions for 72 hours, the supernatants are then removed and the cell carpets are washed with a phosphate buffer (pH=7.2). The cells are lysed with a pH 7.2 phosphate buffer containing 1% Triton X100.
The tyrosinase activity of each of the lysates is then estimated against a fungal tyrosinase range (Sigma T7755).
The methodology employed uses L-Dopa as reaction substrate (45 minutes at 37° C.), and the formation of melanin is assessed by measuring the absorbance at 450 nm.
In this test, two references are also evaluated: kojic acid (a tyrosinase inhibitor introduced at 0.1% into the culture medium) and isobutylmethylxanthine (IBMX), a phosphodiesterase inhibitor which, by limiting the catabolism of cAMP, contributes towards increasing the overall tyrosinase activity as assessed in this test.

stimulation of the activity of tyrosinase (PGE2 alone at 1 μM) | stimulation of the activity of tyrosinase (PGE2 alone at 10 μM) | Structure (SMILES) | stimulation of the tyrosinase activity (Compound 23 (1 μM) + PGE2 (1 μM)) | stimulation of the tyrosinase activity (Compound 23 (1 μM) + PGE2 (10 μM))
 |  | O=C(COc1cccc(Cl)c1)NCc1ccco1 [Compound 23, 2-(3-chlorophenoxy)-N-furan-2-ylmethylacetamide] | 31% | 28%
9% | 15% | CCCCC[C@H](O)/C=C/[C@H]1[C@H](O)CC(=O)[C@@H]1C/C=C\CCCC(=O)O [PGE2, prostaglandin E2] |  | 
